The assay addresses T1, C1101 in reticulon 4 (RTN4, Uniprot ID Q9NQC3-1) (Homo sapiens, UniProt Q9NQC3).
T1 construct: endogenous in cells; host or cells: SW620 colorectal cancer cell lysate
T1 sequence (Q9NQC3 1-1192): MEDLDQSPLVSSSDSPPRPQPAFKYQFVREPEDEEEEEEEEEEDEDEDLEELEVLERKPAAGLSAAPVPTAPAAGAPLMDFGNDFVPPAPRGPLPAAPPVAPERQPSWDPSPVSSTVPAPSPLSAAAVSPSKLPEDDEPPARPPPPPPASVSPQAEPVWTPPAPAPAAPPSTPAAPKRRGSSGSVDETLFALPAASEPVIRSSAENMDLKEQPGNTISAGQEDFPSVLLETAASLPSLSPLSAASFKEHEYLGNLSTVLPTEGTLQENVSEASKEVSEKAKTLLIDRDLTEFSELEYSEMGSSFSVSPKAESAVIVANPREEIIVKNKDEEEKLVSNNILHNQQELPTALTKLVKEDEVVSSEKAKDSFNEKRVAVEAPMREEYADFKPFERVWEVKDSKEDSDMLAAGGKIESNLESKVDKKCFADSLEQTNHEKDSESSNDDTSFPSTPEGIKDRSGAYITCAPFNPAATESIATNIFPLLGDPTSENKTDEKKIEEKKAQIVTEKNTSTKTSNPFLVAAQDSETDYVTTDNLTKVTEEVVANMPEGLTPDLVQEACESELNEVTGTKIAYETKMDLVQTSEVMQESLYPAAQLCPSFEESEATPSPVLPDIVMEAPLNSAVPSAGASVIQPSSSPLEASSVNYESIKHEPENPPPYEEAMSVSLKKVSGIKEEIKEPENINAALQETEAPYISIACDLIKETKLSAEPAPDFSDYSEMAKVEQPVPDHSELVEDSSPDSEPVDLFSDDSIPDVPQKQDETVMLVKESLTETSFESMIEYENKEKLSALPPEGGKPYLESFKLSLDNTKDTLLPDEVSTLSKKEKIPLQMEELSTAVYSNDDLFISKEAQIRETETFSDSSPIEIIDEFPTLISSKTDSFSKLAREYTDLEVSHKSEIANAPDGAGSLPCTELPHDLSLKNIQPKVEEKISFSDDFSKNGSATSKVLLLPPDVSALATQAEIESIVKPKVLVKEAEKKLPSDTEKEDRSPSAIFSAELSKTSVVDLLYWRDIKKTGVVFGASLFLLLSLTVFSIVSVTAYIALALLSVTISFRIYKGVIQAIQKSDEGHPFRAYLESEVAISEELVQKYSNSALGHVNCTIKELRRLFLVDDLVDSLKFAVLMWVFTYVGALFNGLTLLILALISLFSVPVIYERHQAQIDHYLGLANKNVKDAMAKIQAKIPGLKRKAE
The experiment in a line: Competitive isoTOP-ABPP against IAyne labeling in SW620 proteomes: RTN4 C1101. Type of assay: binding. An excerpt: We next performed isoTOP-ABPP studies to identify the direct targets of these lead compounds. We competed either vehicle or DKM 3-30 against labeling of SW620 proteomes with a broad cysteine-reactive probe, iodoacetamide-alkyne (IAyne), followed by appending probe-labeled proteins with a biotin-azide tag bearing a TEV protease recognition site and an isotopically light (for vehicle-treated) or heavy (for fragment-treated) tags via copper catalyzed azide-alkyne cycloaddition (CuAAC)^6,9. We then combined control and treated proteomes in a 1:1 ratio, enriched probe-labeled proteins with avidin, and digested proteomes with trypsin. Avidin-enriched probe-modified tryptic peptides were released by TEV protease digestion for subsequent quantitative proteomic analysis. Through these studies, we identified the top hit for DKM 3-30 as C1101 in reticulon 4 (RTN4, Uniprot ID Q9NQC3-1) with a light to heavy ratio of 3.0 (FIG. 2A; Table 2).
IsoTOP-ABPP Analysis. IsoTOP-ABPP analyses were performed as previously described^5-7. For competitive IsoTOP-ABPP, SW620 cell lysates were pre-incubated with DMSO vehicle or DKM 3-30 (50 μM) for 30 min at 37° C. in phosphate-buffered saline (PBS), and then labeled with IAyne (100 μM) for 1 h at room temperature. […]

Molecules are shown by their SMILES.

`C=CC(=O)Nc1ccc(Oc2ccc(Cl)cc2)cc1` [DKM 3-30, N-(4-(4-chlorophenoxy)phenyl)acrylamide]: the “light to heavy ratio” value (DKM 3-30 50 μM, 30 min 37° C., then IAyne 100 μM, ratio >3 indicates bound sites) was 3.0. Besides, the “Ave area ratio (light to heavy ratio), peptide YSNSALGHVNC*TIK, C1101, Q9NQC3” value (SW620 cell proteomes pre-treated with DMSO (light) or ligand 50 μM (heavy) 30 min at 37° C., then IAyne 100 μM 1h, averaged over runs) is 3.04.

Values taken from patent US20200062696A1, “COMPOSITIONS AND METHODS FOR INHIBITING RETICULON 4” (THE REGENTS OF THE UNIVERSITY OF CALIFORNIA, priority 2017, published 2020).
